# From paper PMC11784839, “Monoaminergic neurotransmitters are bimodal effectors of tau aggregation” (Science Advances, 2025)
# Target: tau (Homo sapiens, UniProt P10636)
# Experiment: MCE Phenols Library screening, tau biosensor cell seeding assay (AvZ)
# Format: cell-based
# Settings: for Z repl 1 / Z Repl 2: Z score; for Z repl 1 / raw data 1: replicate 1; for Z Repl 2 / raw data 2: replicate 2; for AvZ (average z score of seeding, SDs from the mean level of seeding): 10 μM phenol in cell cultures, AD brain homogenate preincubated 16 hours, two biological replicates, positive = catalyzes seeding, negative = inhibits
# [1] = average Z score of the two replicates, tau seeding
# [2] = average puncta of the two replicates
# [3] = average Z score of two replicates, Phenols Library screen
# [4] = average Z score of the two replicates, MCE Phenols Library screen
# tau, sequence (P10636 623-695 limits assumed): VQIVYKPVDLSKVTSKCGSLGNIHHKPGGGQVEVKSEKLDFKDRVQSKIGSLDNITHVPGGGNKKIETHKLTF
Structure (SMILES),Z repl 1,Z Repl 2,av Z [1],av puncta (average of raw data 1 and 2),raw data 1 (puncta),raw data 2 (puncta),"AvZ (average z score of seeding, SDs from the mean level of seeding)",av puncta [2],raw data 1 (raw puncta),raw data 2 (raw puncta),av Z [3],av Z [4]
COc1cc(-c2coc3c([C@@H]4O[C@H](CO)[C@@H](O)[C@H](O)[C@H]4O)c(O)ccc3c2=O)ccc1O [3'-Methoxypuerarin],0.567,-0.096,0.236,22452.2,33160,11744.3,,,,,,
"COc1cc(O)cc(OC)c1 [3,5-Dimethoxyphenol]",0.645,-0.096,,22916.8,34097.4,11736.1,0.275,,,,,
O=C(O)CCc1cccc(O)c1 [3-(3-Hydroxyphenyl)propionic acid],1.121,1.553,,34577.7,39805,29350.4,1.337,,,,,
N[C@@H](Cc1ccc(O)c(Cl)c1)C(=O)O [3-Chloro-L-tyrosine],0.451,-0.515,,19517.9,31767.4,7268.49,-0.032,,,,,
O=Cc1cccc(O)c1 [3-Hydroxybenzaldehyde],0.08,-0.354,,18142.7,27305.1,8980.23,-0.137,,,,,
O=C(O)c1cccc(O)c1 [3-Hydroxybenzoic acid],-0.749,-0.88,,10365.4,17360.5,3370.33,-0.814,,,,,
O=C(O)CNC(=O)c1cccc(O)c1 [3-Hydroxyhippuric acid],0.493,-0.448,,20125.5,32267.3,7983.73,0.023,,,,,
O=C(O)Cc1cccc(O)c1 [3-Hydroxyphenylacetic acid],0.164,-0.218,,19376.5,28313.1,10440,-0.027,,,,,
COc1cc(CCN)ccc1O [3-Methoxytyramine],0.052,-0.661,,,,,-0.304,16341.1,26971.9,5710.28,,
Cc1cccc(O)c1O [3-Methylcatechol],-0.458,-0.383,,,,,-0.42,14763.7,20851.2,8676.12,,
N[C@@H](Cc1ccc(O)c([N+](=O)[O-])c1)C(=O)O [3-Nitro-L-tyrosine],0.936,1.418,,32750.4,37588.7,27912.2,1.177,,,,,
COC(=O)[C@]1(O)C[C@@H](O)[C@@H](O)[C@H](OC(=O)/C=C/c2ccc(O)c(O)c2)C1 [3-O-Caffeoylquinic acid methyl ester],-0.373,0.274,,18786.4,21876.3,15696.4,,,,,-0.049,
COc1cc(C(=O)O)cc(O)c1O [3-O-Methylgallic acid],-1.04,-0.532,,10472,13858.8,7085.12,-0.786,,,,,
"O=c1cc(-c2ccc(O)cc2)oc2cccc(O)c12 [4',5-Dihydroxyflavone]",0.443,0.397,0.42,24336.3,31664.4,17008.3,,,,,,
CC(=O)c1ccc(O)c(C)c1 [4'-Hydroxy-3'-methylacetophenone],0.035,-0.259,,18387.5,26771.9,10003.1,-0.112,,,,,
O=C(/C=C/c1ccccc1)c1ccc(O)cc1 [4'-Hydroxychalcone],0.138,0.314,0.226,22065.5,28009.6,16121.4,,,,,,
COc1ccc(/C=C/c2cc(O)cc(O)c2)cc1 [4'-Methoxyresveratrol],0.613,0.599,0.606,26435.9,33711.1,19160.7,,,,,,
COc1cc(O)c(C(=O)/C=C/c2ccc(O)cc2)cc1CC=C(C)C [4'-O-Methylbavachalcone],-0.312,0.23,,18915.2,22607.8,15222.5,,,,,-0.041,

Structure (SMILES),Z repl 1,Z Repl 2,av Z [1],av puncta (average of raw data 1 and 2),raw data 1 (puncta),raw data 2 (puncta),"AvZ (average z score of seeding, SDs from the mean level of seeding)",av puncta [2],raw data 1 (raw puncta),raw data 2 (raw puncta),av Z [3],av Z [4]
"O=C(C=Cc1ccc(O)c(O)c1)OC1CC(O)(C(=O)O)CC(O)C1OC(=O)C=Cc1ccc(O)c(O)c1 (stereo not shown) [4,5-Dicaffeoylquinic acid]",-1.017,-0.252,,,14137.8,10071.7,,12104.8,,,,-0.635
"OCC(O)c1ccc(O)c(O)c1 (stereo not shown) [4-(1,2-Dihydroxyethyl)benzene-1,2-diol]",-0.442,-0.042,,,,,-0.242,16682.4,21044.7,12320.1,,
C=CCc1ccc(O)c(O)c1 [4-Allylcatechol],-0.394,-1.127,,11173.7,21621.8,725.499,-0.761,,,,,
CCc1ccc(O)cc1O [4-Ethylresorcinol],-1.505,-0.734,,6604.27,8283.51,4925.02,-1.119,,,,,
COc1cc(/C=C/C(=O)O[C@H]2[C@H](O)C[C@](O)(C(=O)O)C[C@H]2O)ccc1O [4-Feruloylquinic acid],-1.622,-0.646,,6372.47,6875.06,5869.87,,,,,,-1.134
O=Cc1c[nH]c2cccc(O)c12 [4-Hydroxy-1H-indole-3-carbaldehyde],0.51,-0.086,,22163.8,32475.1,11852.6,0.212,,,,,
O=C(O)c1ccc(O)cc1 [4-Hydroxybenzoic acid],-0.323,-0.785,,,22475.3,4386.59,-0.554,13431,,,,
N#CCc1ccc(O)cc1 [4-Hydroxybenzyl cyanide],0.423,-0.552,,19148.8,31425.1,6872.51,-0.064,,,,,
NCc1ccc(O)cc1 [4-Hydroxybenzylamine],-0.693,-0.451,,,18024.8,7945.11,-0.572,12984.9,,,,
O=C(/C=C/c1ccc(O)cc1)c1ccccc1 [4-Hydroxychalcone],-0.784,-0.093,,,,,,14353.6,16932.9,11774.3,,-0.439
CCC1(c2ccc(O)cc2)NC(=O)N(C)C1=O (stereo not shown) [4-Hydroxymephenytoin],-0.081,-0.754,,,,,,15044.9,25375.4,4714.28,,-0.418
CC(=O)OCCc1ccc(O)c(O)c1 [4-Hydroxytyrosol acetate],,,,,,,-0.526,,,,,
COc1ccc(C=O)cc1 [4-Methoxybenzaldehyde],-0.17,0.786,,22737.8,24311,21164.6,0.308,,,,,
Cc1ccc(O)c(O)c1 [4-Methylcatechol],-1.54,-0.975,,5109.52,7864.83,2354.22,-1.257,,,,,
Cc1cc(=O)oc2c(O)c(O)ccc12 [4-Methyldaphnetin],-1.037,-0.74,,9377.72,13895.3,4860.11,,,,,,-0.889
Cc1cc(=O)oc2cc(O)c(O)cc12 [4-Methylesculetin],0.302,-0.022,0.14,21252.2,29975.4,12529,,,,,,
Cc1cc(=O)oc2cc(O)ccc12 [4-Methylumbelliferone],-0.898,-0.379,,,15562.7,8717.47,,12140.1,,,,-0.639
